{"source": "patent US9968614B2", "about": "“Aprepitant injectable formulations” (InnoPharma, Inc., priority 2012, dated 2018)", "key": {"[1]": {"assay": "Solubility of aprepitant in ethanol with the balance water", "type": "physicochemical", "description": "Thus, while the above approaches using complexing agents and/or co-solvents led to a soluble form of aprepitant in at least some instances, concentration of aprepitant is relatively low, and aprepitant tends to precipitate out upon further dilution. As is already known in the art, solubility of aprepitant increases exponentially with increasing concentration of ethanol as shown in Table 1 in the background section. Moreover, maximum allowed concentrations of ethanol in a drug formulation are typically at or below 49 volume %. […] Moreover, and as already noted above, an ethanol/water solvent system is not suitable for injection as aprepitant will rapidly precipitate upon dilution at the injection site."}, "[2]": {"assay": "Solubility of aprepitant in aqueous surfactant solutions", "type": "physicochemical", "details": "water alone as solvent", "description": "However, in a typical injectable formulation at Polysorbate 80 concentration of 10% w/v, it would require 7 grams of surfactant, and at Polysorbate 80 concentration of 30% w/v, it would require 9 grams of surfactant to solubilize the aprepitant. Unfortunately, such high quantities of surfactant are entirely unsuitable for injectable formulations (e.g., due to hypersensitivity issues related to polysorbate, foam formation during mixing, etc.). Table 2 below illustrates typical solubility data for aprepitant using water alone as solvent."}, "[3]": {"assay": "Solubility of aprepitant in water or ethanol/water with polysorbate 80", "type": "physicochemical", "description": "The inventors further tested whether co-solvents (i.e., solvents in addition to water) in combination with surfactants would improve solubility of aprepitant. […] In most preferred aspects, a relatively low concentration of nonionic surfactant was chosen in a co-solvent mixture of ethanol and water, and Tables 3-5 below exemplarily illustrate the results of such combination.\nMore specifically, Table 3 depicts solubility results of aprepitant in water without ethanol at surfactant concentrations noted in the table.\nLikewise, Table 4 depicts solubility results of aprepitant in an ethanol/water mixture of (30 vol % EtOH, 70 vol % H2O) at surfactant concentrations noted in the table, and Table 5 depicts solubility results of aprepitant in an ethanol/water mixture of (55 volume % EtOH, 45 vol % H2O) at surfactant concentrations noted in the table."}, "[4]": {"assay": "Solubility of aprepitant in polysorbate 80 solutions after pre-solubilisation in DMAC", "type": "physicochemical", "method": "The inventors also tested whether solubility of aprepitant in aqueous polysorbate 80 solutions could be improved when aprepitant was pre-solubilized in a secondary solvent (e.g., dimethylacetamide (DMAC)). […] Remarkably, when the inventors directly added 200 μL of DMAC solubilized in 10 mL of water to 100 mg aprepitant (i.e., without surfactant), aprepitant was not detected in the solution phase."}, "[5]": {"assay": "Solubilization of aprepitant by pH (pKa, pH-dependent solubility)", "type": "physicochemical", "method": "Indeed, to be soluble in aqueous solution, a pH of greater than 11.7 is required. However, a formulation with such a high pH is not suitable for injection. Moreover, the instant such a formulation is diluted in blood, the pH will change to about pH 7.4, which will lead to rapid precipitation of the drug. […] Similar problems were also encountered where aprepitant is dissolved in a water/ethanol solvent mixture where ethanol is at about 50 volume 9 concentration. Here, dilution that would occur at the injection site would lead to precipitation of the drug and so might lead to chemo-embolism."}, "[6]": {"details": "cited from earlier work"}, "[7]": {"details": "cited from earlier work", "remark": "listed apart in the source"}, "[8]": {"details": "given orally, nanoparticulate composition; cited from earlier work"}, "[9]": {"details": "IV infusion; cited from earlier work"}, "[10]": {"details": "prevention and control of acute and delayed chemotherapy induced nausea and vomiting; cited from earlier work"}}, "note": "Where two headings read alike, the source gives them in different places."}
{"compound": "C[C@@H](O[C@H]1OCCN(Cc2nc(=O)[nH][nH]2)[C@H]1c1ccc(F)cc1)c1cc(C(F)(F)F)cc(C(F)(F)F)c1", "note": "[Aprepitant, 5-([(2R,3S)-2((R)-1-[3,5-bis(trifluoromethyl)phenyl]ethoxy)-3-(4-fluoro-phenyl)morpholino]methyl)-1H-1,2,4-triazol-3(2H)-one]", "values": [{"measurement": "Aprepitant Conc.", "setting": "[1]; Ethanol Conc. (v/v) 10, balance water", "result": 0.0001, "unit": "mg/mL"}, {"measurement": "Aprepitant Conc.", "setting": "[1]; Ethanol Conc. (v/v) 30, balance water", "result": 0.0232, "unit": "mg/mL"}, {"measurement": "Aprepitant Conc.", "setting": "[1]; Ethanol Conc. (v/v) 50, balance water", "result": 1.76, "unit": "mg/mL"}, {"measurement": "Aprepitant Conc.", "setting": "[1]; Ethanol Conc. (v/v) 55, balance water", "result": 3.30, "unit": "mg/mL"}, {"measurement": "Aprepitant Conc.", "setting": "[1]; Ethanol Conc. (v/v) 60, balance water", "result": 5.1, "unit": "mg/mL"}, {"measurement": "Aprepitant Conc.", "setting": "[1]; Ethanol Conc. (v/v) 70, balance water", "result": 12.8, "unit": "mg/mL"}, {"measurement": "Aprepitant Conc.", "setting": "[1]; Ethanol Conc. (v/v) 90, balance water", "result": 21.8, "unit": "mg/mL"}, {"measurement": "Aprepitant Conc.", "setting": "[2]; Cremophor RH 40 10 % w/v", "result": 1.24, "unit": "mg/mL"}, {"measurement": "Aprepitant Conc.", "setting": "[2]; Cremophor RH 40 30 % w/v", "result": 3.51, "unit": "mg/mL"}, {"measurement": "Aprepitant Conc.", "setting": "[2]; Cremophor RH 60 10 % w/v", "result": 1.24, "unit": "mg/mL"}, {"measurement": "Aprepitant Conc.", "setting": "[2]; Poloxamer 188 30 % w/v", "result": 1.24, "unit": "mg/mL"}, {"measurement": "Aprepitant Conc.", "setting": "[2]; Polysorbate 80 10 % w/v", "result": 1.85, "unit": "mg/mL"}, {"measurement": "Aprepitant Conc.", "setting": "[2]; Polysorbate 80 30 % w/v", "result": 4.42, "unit": "mg/mL"}, {"measurement": "Aprepitant Conc.", "setting": "[3]; 30 vol % EtOH, 70 vol % H2O, Polysorbate 80 11 mg/mL", "result": 0.560, "unit": "mg/mL"}, {"measurement": "Aprepitant Conc.", "setting": "[3]; 30 vol % EtOH, 70 vol % H2O, Polysorbate 80 44 mg/mL", "result": 0.793, "unit": "mg/mL"}, {"measurement": "Aprepitant Conc.", "setting": "[3]; 30 vol % EtOH, 70 vol % H2O, no Polysorbate 80", "result": 0.0232, "unit": "mg/mL"}, {"measurement": "Aprepitant Conc.", "setting": "[3]; 55 volume % EtOH, 45 vol % H2O, Polysorbate 80 11 mg/mL", "result": 1.936, "unit": "mg/mL"}, {"measurement": "Aprepitant Conc.", "setting": "[3]; 55 volume % EtOH, 45 vol % H2O, Polysorbate 80 22 mg/mL", "result": 3.309, "unit": "mg/mL"}, {"measurement": "Aprepitant Conc.", "setting": "[3]; 55 volume % EtOH, 45 vol % H2O, Polysorbate 80 44 mg/mL", "result": 4.182, "unit": "mg/mL"}, {"measurement": "Aprepitant Conc.", "setting": "[3]; 55 volume % EtOH, 45 vol % H2O, no Polysorbate 80", "result": 3.3, "unit": "mg/mL"}, {"measurement": "Aprepitant Conc.", "setting": "[3]; water without ethanol, Polysorbate 80 11 mg/mL", "result": 0.179, "unit": "mg/mL"}, {"measurement": "Aprepitant Conc.", "setting": "[3]; water without ethanol, Polysorbate 80 22 mg/mL", "result": 0.308, "unit": "mg/mL"}, {"measurement": "Aprepitant Conc.", "setting": "[3]; water without ethanol, Polysorbate 80 44 mg/mL", "result": 0.505, "unit": "mg/mL"}, {"measurement": "aprepitant in the solution phase", "setting": "[4]; 200 μL DMAC in 10 mL water added directly to 100 mg aprepitant, without surfactant", "result": "not detected"}, {"measurement": "Aprepitant Conc.", "setting": "[4]; Directly Added, Polysorbate 80 10 % w/v", "result": 1.85, "unit": "mg/mL"}, {"measurement": "Aprepitant Conc.", "setting": "[4]; Directly Added, Polysorbate 80 30 % w/v", "result": 4.42, "unit": "mg/mL"}, {"measurement": "Aprepitant Conc.", "setting": "[4]; Prior Solubilization in DMAC, Polysorbate 80 5 % w/v", "result": 0.85, "unit": "mg/mL"}, {"measurement": "Aprepitant Conc.", "setting": "[4]; Prior Solubilization in DMAC, Polysorbate 80 10 % w/v", "result": 2.03, "unit": "mg/mL"}, {"measurement": "Aprepitant Conc.", "setting": "[4]; Prior Solubilization in DMAC, Polysorbate 80 15 % w/v", "result": 3.13, "unit": "mg/mL"}, {"measurement": "Aprepitant Conc.", "setting": "[4]; Prior Solubilization in DMAC, Polysorbate 80 20 % w/v", "result": 4.35, "unit": "mg/mL"}, {"measurement": "Aprepitant Conc.", "setting": "[4]; Prior Solubilization in DMAC, Polysorbate 80 30 % w/v", "result": 4.80, "unit": "mg/mL"}, {"measurement": "pH required to be soluble in aqueous solution", "setting": "[5]; aqueous solution", "result": "greater than 11.7"}, {"measurement": "solubility in concentrated formic acid", "setting": "[5]; concentrated formic acid", "result": "soluble"}, {"measurement": "behaviour on dilution of formic acid solution", "setting": "[5]; twofold dilution with aqueous medium", "result": "precipitated almost immediately"}, {"measurement": "pka", "setting": "[6]", "result": 9.7}, {"measurement": "solubility (descriptive)", "setting": "[7]; acetonitrile", "result": "slightly soluble"}, {"measurement": "solubility (descriptive)", "setting": "[7]; ethanol", "result": "sparingly soluble"}, {"measurement": "solubility (descriptive)", "setting": "[7]; isopropyl acetate", "result": "sparingly soluble"}, {"measurement": "solubility (descriptive)", "setting": "[7]; oil (as is well established)", "result": "substantially insoluble"}, {"measurement": "solubility (descriptive)", "setting": "[7]; water (as is well established)", "result": "substantially insoluble"}, {"measurement": "solubility (descriptive)", "setting": "[7]; water", "result": "practically insoluble"}, {"measurement": "bioavailability", "setting": "[8]", "result": "60-65%"}]}
{"compound": "C[C@@H](O[C@H]1OCCN(Cc2nc(O)n(P(=O)(O)O)n2)[C@H]1c1ccc(F)cc1)c1cc(C(F)(F)F)cc(C(F)(F)F)c1", "note": "[Fosaprepitant]", "values": [{"measurement": "time for conversion to aprepitant", "setting": "[9]", "result": "less than 30 minutes"}, {"measurement": "comparison to aprepitant", "setting": "[10]", "result": "non-inferiority and bioequivalency"}]}
